Patent US20150328245A1, “Agents for Eliminating Tumour-Initiating Cells” (priority 2012, published 2015)

Test: In vivo maximum tolerated dose assay for compound I-2
Set-up: species or system BALB/c mice
Description: In vivo maximum tolerated dose (MTD) toxicity assay was carried out to evaluate the highest dose of a pharmaceutical treatment that will produce the desired effect without unacceptable toxicity. The purpose of administering MTD is to determine whether long-term exposure to a compound might lead to unacceptable adverse health effects in a subject, when the level of exposure is not sufficient to cause premature mortality due to short-term toxic effects.
An exemplary procedure for the in vivo maximum tolerated dose toxicity assay follows. A statistically appropriate number of FEMALE BALB/c MICE were interperitoneally treated with the compound I-2 at three different dose levels 3 mg/kg, 1 mg/kg, and 0.3 mg/kg. Body weight and clinical sign of all the animals were observed daily during dosing and post dosing period.

SMILES: COc1cc2c(OC3OCC(OC)C(OC)C3O)c3c(c(-c4ccc5c(c4)OCO5)c2cc1OC)C(=O)OC3 (centres unmarked) [I-2]
- toxicity finding of the given dose (0.3 mg/kg q7d×4 i.p.): safe
- toxicity finding of the given dose (1 mg/kg q7d×4 i.p.): safe
- mortality (3 mg/kg q7d×4 i.p.): more than one mortality
- toxicity finding of the given dose (3 mg/kg q7d×4 i.p.): toxic
- Mean body weight (G1 3 mg/kg q7dX4, day 1): 2 g
- Mean body weight (G1 3 mg/kg q7dX4, day 2): 2 g
- Mean body weight (G1 3 mg/kg q7dX4, day 3): 2 g
- Mean body weight (G1 3 mg/kg q7dX4, day 4): 2 g
- Mean body weight (G1 3 mg/kg q7dX4, day 5): 2 g
- Mean body weight (G1 3 mg/kg q7dX4, day 6): 2 g
- Mean body weight (G1 3 mg/kg q7dX4, day 7): 2 g
- Mean body weight (G1 3 mg/kg q7dX4, day 8): 2 g
- Mean body weight (G1 3 mg/kg q7dX4, day 9): 2 g
- Mean body weight (G1 3 mg/kg q7dX4, day 10): 2 g
- Mean body weight (G1 3 mg/kg q7dX4, day 11): 2 g
- Mean body weight (G1 3 mg/kg q7dX4, day 12): 2 g
- Mean body weight (G1 3 mg/kg q7dX4, day 13): 2 g
- Mean body weight (G1 3 mg/kg q7dX4, day 14): 2 g
- Mean body weight (G1 3 mg/kg q7dX4, day 15): 2 g
- Mean body weight (G1 3 mg/kg q7dX4, day 16): 2 g
- Mean body weight (G1 3 mg/kg q7dX4, day 17): 2 g
- Mean body weight (G1 3 mg/kg q7dX4, day 18): 2 g
- Mean body weight (G1 3 mg/kg q7dX4, day 19): 2 g
- Mean body weight (G1 3 mg/kg q7dX4, day 20): 2 g
- Mean body weight (G1 3 mg/kg q7dX4, day 21): 2 g
- Mean body weight (G1 3 mg/kg q7dX4, day 22): 2 g
- Mean body weight (G1 3 mg/kg q7dX4, day 23): 2 g
- Mean body weight (G1 3 mg/kg q7dX4, day 24): 2 g
- Mean body weight (G1 3 mg/kg q7dX4, day 25): 2 g
- Mean body weight (G1 3 mg/kg q7dX4, day 26): 2 g
- Mean body weight (G1 3 mg/kg q7dX4, day 27): 2 g
- Mean body weight (G1 3 mg/kg q7dX4, day 28): 2 g
- Mean body weight (G1 3 mg/kg q7dX4, day 29): 2 g
- Mean body weight (G2 1 mg/kg q7dX4, day 1): 23. g
- Mean body weight (G2 1 mg/kg q7dX4, day 2): 23. g
- Mean body weight (G2 1 mg/kg q7dX4, day 3): 23. g
- Mean body weight (G2 1 mg/kg q7dX4, day 4): 24. g
- Mean body weight (G2 1 mg/kg q7dX4, day 5): 24. g
- Mean body weight (G2 1 mg/kg q7dX4, day 6): 24. g
- Mean body weight (G2 1 mg/kg q7dX4, day 7): 24. g
- Mean body weight (G2 1 mg/kg q7dX4, day 8): 24. g
- Mean body weight (G2 1 mg/kg q7dX4, day 9): 24. g
- Mean body weight (G2 1 mg/kg q7dX4, day 10): 24. g
- Mean body weight (G2 1 mg/kg q7dX4, day 11): 24. g
- Mean body weight (G2 1 mg/kg q7dX4, day 12): 24. g
- Mean body weight (G2 1 mg/kg q7dX4, day 13): 25. g
- Mean body weight (G2 1 mg/kg q7dX4, day 14): 24. g
- Mean body weight (G2 1 mg/kg q7dX4, day 15): 24. g
- Mean body weight (G2 1 mg/kg q7dX4, day 16): 25. g
- Mean body weight (G2 1 mg/kg q7dX4, day 17): 25. g
- Mean body weight (G2 1 mg/kg q7dX4, day 18): 25. g
- Mean body weight (G2 1 mg/kg q7dX4, day 19): 25. g
- Mean body weight (G2 1 mg/kg q7dX4, day 20): 25. g
- Mean body weight (G2 1 mg/kg q7dX4, day 21): 25. g
- Mean body weight (G2 1 mg/kg q7dX4, day 22): 25. g
- Mean body weight (G2 1 mg/kg q7dX4, day 23): 25. g
- Mean body weight (G2 1 mg/kg q7dX4, day 24): 25. g
- Mean body weight (G2 1 mg/kg q7dX4, day 25): 25. g
- Mean body weight (G2 1 mg/kg q7dX4, day 26): 26. g
- Mean body weight (G2 1 mg/kg q7dX4, day 27): 25. g
- Mean body weight (G2 1 mg/kg q7dX4, day 28): 25. g
- Mean body weight (G2 1 mg/kg q7dX4, day 29): 25. g
- Mean body weight (G3 0.3 mg/kg q7dX4, day 1): 2 g
- Mean body weight (G3 0.3 mg/kg q7dX4, day 2): 2 g
- Mean body weight (G3 0.3 mg/kg q7dX4, day 3): 2 g
- Mean body weight (G3 0.3 mg/kg q7dX4, day 4): 2 g
- Mean body weight (G3 0.3 mg/kg q7dX4, day 5): 2 g
- Mean body weight (G3 0.3 mg/kg q7dX4, day 6): 2 g
- Mean body weight (G3 0.3 mg/kg q7dX4, day 7): 2 g
- Mean body weight (G3 0.3 mg/kg q7dX4, day 8): 2 g
- Mean body weight (G3 0.3 mg/kg q7dX4, day 9): 2 g
- Mean body weight (G3 0.3 mg/kg q7dX4, day 10): 2 g
- Mean body weight (G3 0.3 mg/kg q7dX4, day 11): 2 g
- Mean body weight (G3 0.3 mg/kg q7dX4, day 12): 2 g
- Mean body weight (G3 0.3 mg/kg q7dX4, day 13): 2 g
- Mean body weight (G3 0.3 mg/kg q7dX4, day 14): 2 g
- Mean body weight (G3 0.3 mg/kg q7dX4, day 15): 2 g
- Mean body weight (G3 0.3 mg/kg q7dX4, day 16): 2 g
- Mean body weight (G3 0.3 mg/kg q7dX4, day 17): 2 g
- Mean body weight (G3 0.3 mg/kg q7dX4, day 18): 2 g
- Mean body weight (G3 0.3 mg/kg q7dX4, day 19): 2 g
- Mean body weight (G3 0.3 mg/kg q7dX4, day 20): 2 g
- Mean body weight (G3 0.3 mg/kg q7dX4, day 21): 2 g
- Mean body weight (G3 0.3 mg/kg q7dX4, day 22): 2 g
- Mean body weight (G3 0.3 mg/kg q7dX4, day 23): 2 g
- Mean body weight (G3 0.3 mg/kg q7dX4, day 24): 2 g
- Mean body weight (G3 0.3 mg/kg q7dX4, day 25): 2 g
- Mean body weight (G3 0.3 mg/kg q7dX4, day 26): 2 g
- Mean body weight (G3 0.3 mg/kg q7dX4, day 27): 2 g
- Mean body weight (G3 0.3 mg/kg q7dX4, day 28): 2 g
- Mean body weight (G3 0.3 mg/kg q7dX4, day 29): 2 g
- body weight / growth pattern (group G1 3 mg/kg q7d×4): decreased body weight after first treatment then they showed normal growth pattern
- Percentage Body weight change (group G1 3 mg/kg q7d×4, day 2): −3.2%
- body weight / growth pattern (group G2 1 mg/kg q7d×4): normal growth pattern throughout the experimental period
- body weight gain compared to other treatment groups (group G2 1 mg/kg q7d×4): maximum body weight gain
- body weight / growth pattern (group G3 0.3 mg/kg q7d×4): decreased body weight after first treatment then they showed normal growth pattern
- body weight gain as compared to group G1 (group G3 0.3 mg/kg q7d×4): marginal body weight gain
- Percentage Body weight change (group G3 0.3 mg/kg q7d×4, day 3): −3.8%
